From ChEMBL document CHEMBL1201862, “PubChem BioAssay data set” (2004)
The source made the active and inactive calls.

Experiments:
[1] = molecular target: T1, Sentrin-specific protease 8 (Homo sapiens, UniProt Q96LD8); assay type: functional;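 note: luminescence read-out of SENP8 inhibition, dose-response confirmation following an ultra-high-throughput screen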
T1 sequence (Q96LD8 whole entry): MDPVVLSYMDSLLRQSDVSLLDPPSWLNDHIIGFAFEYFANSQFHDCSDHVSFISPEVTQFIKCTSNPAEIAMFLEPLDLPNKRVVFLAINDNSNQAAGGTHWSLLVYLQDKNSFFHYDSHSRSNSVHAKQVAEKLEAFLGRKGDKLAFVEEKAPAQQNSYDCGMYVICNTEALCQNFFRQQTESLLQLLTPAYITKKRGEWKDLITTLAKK

[2] = microbe, parasite or virus in culture; assay type: functional; details: Mycobacterium tuberculosis
[3] = molecular target: T2, Microphthalmia-associated transcription factor (Homo sapiens, UniProt O75030); experiment: TRPM1 promoter luciferase signal decrease, dose response, MITF inhibitor project, cell-based, SK-MEL-5, cherry-picked, set 3 (AID 493073); assay type: functional
T2 sequence (O75030 whole entry): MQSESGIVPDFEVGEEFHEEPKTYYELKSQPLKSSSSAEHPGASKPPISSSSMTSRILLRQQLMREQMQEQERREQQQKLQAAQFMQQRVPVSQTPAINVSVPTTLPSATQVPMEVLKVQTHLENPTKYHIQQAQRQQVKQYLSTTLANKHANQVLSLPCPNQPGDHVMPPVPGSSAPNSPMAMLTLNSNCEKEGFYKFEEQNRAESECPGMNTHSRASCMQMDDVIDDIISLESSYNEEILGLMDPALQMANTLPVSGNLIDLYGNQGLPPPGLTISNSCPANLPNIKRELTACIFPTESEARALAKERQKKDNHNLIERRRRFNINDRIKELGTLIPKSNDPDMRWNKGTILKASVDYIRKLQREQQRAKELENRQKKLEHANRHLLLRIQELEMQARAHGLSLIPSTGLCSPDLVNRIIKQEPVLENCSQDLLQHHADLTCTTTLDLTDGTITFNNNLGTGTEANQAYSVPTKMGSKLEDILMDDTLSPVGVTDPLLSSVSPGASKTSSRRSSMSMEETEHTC

[4] = molecular target: Glucose-6-phosphate 1-dehydrogenase (Homo sapiens, UniProt P11413); experiment: human G6PD enzyme inhibitors, dose response, selectivity assay for P. falciparum G6PD inhibitor project, biochemical, fluorescence (AID 504792); assay type: functional
[5] = molecular target: Bifunctional protein GlmU (Mycobacterium tuberculosis, UniProt P9WMN3); experiment: Inhibitors of Mycobacterial Glucosamine-1-phosphate acetyl transferase (GlmU). Secondary screen.; parameters: species or system Mycobacterium tuberculosis H37Rv
[6] = system: Escherichia coli; experiment: microbe, parasite or virus in culture
[7] = system: CHO; experiment: cytotoxicity in TLR9-MyD88 CHO cells, dose response, cytotoxicity control for TLR9-MyD88 binding inhibitor project, cell-based, luminescence (AID 588339); assay type: functional, hamster; details: Cricetulus griseus;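 note: CHO cells stably coexpressing TLR9 and MyD88 fusions from primary screen; compound exposure lasted 48 hours before viability readout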
[8] = system: BJ; experiment: cells; assay type: functional, cell-based; details: Homo sapiens
[9] = Shn3 3'UTR reporter inhibitors, dose response, cell-based, Clone20 osteoblasts, firefly luciferase, cherry-picked (AID 624132); assay type: functional;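 note: firefly luciferase luminescence from reporter carrying the Shn3 3'UTR in osteoblasts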
[10] = system: HEK293; experiment: inhibitors of LMP1-driven NF-kB reporter, dose response, cell-based, HEK293, luciferase, cherry-pick (AID 588343); assay type: functional; details: Homo sapiens
[11] = cytotoxicity in HEK-293T cells, dose response, cytotoxicity control for TCR NF-kB inhibitor project, luminescence, T-cell screen hits (AID 489026); assay type: functional, cell-based;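 note: cells exposed to compound about 14 hours before the viability readout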
[12] = cytotoxicity toward DRD oncogenic fibroblasts, dose response, cell-based, non-viral oncogenic, luminescence (AID 1934); assay type: functional; details: Homo sapiens
[13] = Counterscreen for AddAB inhibitors: absorbance-based bacterial cell-based high throughput dose response assay for inhibitors of bacterial viability. [Related pubchem assays (depositor defined):AID435030, AID449728, AID449731, AID488942, AID488955, AID488956]; assay type: functional
[14] = RKO cell viability reduction, dose response, CellTiter-Glo luminescence (AID 1117322); assay type: functional
[15] = molecular target: Heat shock cognate 71 kDa protein (Homo sapiens, UniProt P11142); experiment: Hsc70 inhibitors, probe displacement, primary screen, biochemical, fluorescence polarization (AID 568)
[16] = Concentration-dependent survival of SW480 colon cancer line, luminescence detection with CellTiter-Glo, half-maximal inhibitory concentration (AID 1117338); assay type: functional
[17] = SNU-C1 cell viability reduction, dose response, CellTiter-Glo luminescence (AID 1117323); assay type: functional, cell-based
[18] = molecular target: Induced myeloid leukemia cell differentiation protein Mcl-1 (Homo sapiens, UniProt Q07820); assay type: functional
[19] = HIV-1 Env-mediated cell fusion inhibitors, dose response, CCR5-tropic Env (AID 2279); assay type: functional
[20] = molecular target: Heat shock 70 kDa protein 1A (Homo sapiens, UniProt P0DMV8); experiment: Hsp70 inhibitors, probe displacement, primary screen, biochemical, fluorescence polarization (AID 583)
[21] = HeLa 2N DNA content increase, dose response, cell-based, IC50 (AID 1117349); assay type: functional
[22] = molecular target: T3, Neuropeptide Y receptor type 2 (Homo sapiens, UniProt P49146); experiment: Fluorescence-based cell-based high-throughput dose response assay for agonists of NPY-Y2. [Related pubchem assays: 1703 (Screening assay (CNGC inhibitors).), 1359 (Screening assay (NPY-Y2 potentiators or agonists).), 1304 (Screening assay (NPY-Y1 potentiators or agonists).), 1710 (Screening assay (NPY-Y2 agonists).), 1791 (Summary AID.)]; assay type: functional
T3 sequence (P49146 whole entry): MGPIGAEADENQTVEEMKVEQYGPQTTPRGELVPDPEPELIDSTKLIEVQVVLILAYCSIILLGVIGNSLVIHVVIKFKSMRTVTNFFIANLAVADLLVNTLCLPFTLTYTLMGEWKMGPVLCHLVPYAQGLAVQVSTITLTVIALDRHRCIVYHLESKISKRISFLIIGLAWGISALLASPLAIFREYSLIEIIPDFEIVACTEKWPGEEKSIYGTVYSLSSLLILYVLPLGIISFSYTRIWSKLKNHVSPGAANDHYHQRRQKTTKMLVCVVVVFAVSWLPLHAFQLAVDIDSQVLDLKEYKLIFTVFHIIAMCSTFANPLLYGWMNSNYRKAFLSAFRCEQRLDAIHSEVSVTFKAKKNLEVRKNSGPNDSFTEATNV

Induced myeloid leukemia cell differentiation protein Mcl-1, sequence (Q07820 whole entry, the tested form may be a part): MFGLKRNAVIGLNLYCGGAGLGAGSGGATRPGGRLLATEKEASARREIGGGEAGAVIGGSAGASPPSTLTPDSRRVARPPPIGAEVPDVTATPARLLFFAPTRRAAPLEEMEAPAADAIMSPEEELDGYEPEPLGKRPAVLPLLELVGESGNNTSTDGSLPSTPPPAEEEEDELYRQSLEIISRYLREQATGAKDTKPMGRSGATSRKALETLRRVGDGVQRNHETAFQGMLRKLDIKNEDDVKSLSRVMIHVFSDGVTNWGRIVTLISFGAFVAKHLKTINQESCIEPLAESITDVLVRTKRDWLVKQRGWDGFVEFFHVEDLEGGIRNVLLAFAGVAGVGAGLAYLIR
Heat shock 70 kDa protein 1A, sequence (P0DMV8 whole entry): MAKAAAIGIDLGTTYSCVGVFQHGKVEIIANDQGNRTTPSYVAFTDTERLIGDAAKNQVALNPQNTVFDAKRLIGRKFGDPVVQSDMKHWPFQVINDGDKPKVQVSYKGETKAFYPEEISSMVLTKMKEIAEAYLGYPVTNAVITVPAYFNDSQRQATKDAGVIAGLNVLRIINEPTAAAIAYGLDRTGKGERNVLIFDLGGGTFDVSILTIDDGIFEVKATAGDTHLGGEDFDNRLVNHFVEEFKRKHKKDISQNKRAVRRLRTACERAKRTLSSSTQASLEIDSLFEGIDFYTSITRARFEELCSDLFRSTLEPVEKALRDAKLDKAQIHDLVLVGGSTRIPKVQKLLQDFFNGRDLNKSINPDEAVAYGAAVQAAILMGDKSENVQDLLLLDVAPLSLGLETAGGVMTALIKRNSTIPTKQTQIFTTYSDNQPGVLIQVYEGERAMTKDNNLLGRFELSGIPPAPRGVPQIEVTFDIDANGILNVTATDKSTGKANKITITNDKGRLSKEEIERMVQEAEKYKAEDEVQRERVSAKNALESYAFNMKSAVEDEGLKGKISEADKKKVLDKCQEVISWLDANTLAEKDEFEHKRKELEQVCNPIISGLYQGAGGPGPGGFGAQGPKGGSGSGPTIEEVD
Bifunctional protein GlmU, sequence (P9WMN3 whole entry): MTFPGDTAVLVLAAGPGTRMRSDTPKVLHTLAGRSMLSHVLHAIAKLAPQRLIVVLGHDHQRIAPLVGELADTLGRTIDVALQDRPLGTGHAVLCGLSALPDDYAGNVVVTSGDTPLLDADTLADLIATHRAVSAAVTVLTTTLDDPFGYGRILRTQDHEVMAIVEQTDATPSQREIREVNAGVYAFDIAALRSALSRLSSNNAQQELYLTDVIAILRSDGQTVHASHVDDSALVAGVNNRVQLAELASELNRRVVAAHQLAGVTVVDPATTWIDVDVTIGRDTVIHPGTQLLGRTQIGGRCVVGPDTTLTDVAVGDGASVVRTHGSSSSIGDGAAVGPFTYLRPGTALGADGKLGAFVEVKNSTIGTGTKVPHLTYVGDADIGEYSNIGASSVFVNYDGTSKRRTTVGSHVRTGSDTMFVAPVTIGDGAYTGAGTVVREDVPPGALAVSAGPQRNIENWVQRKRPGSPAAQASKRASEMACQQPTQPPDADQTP
Glucose-6-phosphate 1-dehydrogenase, sequence (P11413 whole entry): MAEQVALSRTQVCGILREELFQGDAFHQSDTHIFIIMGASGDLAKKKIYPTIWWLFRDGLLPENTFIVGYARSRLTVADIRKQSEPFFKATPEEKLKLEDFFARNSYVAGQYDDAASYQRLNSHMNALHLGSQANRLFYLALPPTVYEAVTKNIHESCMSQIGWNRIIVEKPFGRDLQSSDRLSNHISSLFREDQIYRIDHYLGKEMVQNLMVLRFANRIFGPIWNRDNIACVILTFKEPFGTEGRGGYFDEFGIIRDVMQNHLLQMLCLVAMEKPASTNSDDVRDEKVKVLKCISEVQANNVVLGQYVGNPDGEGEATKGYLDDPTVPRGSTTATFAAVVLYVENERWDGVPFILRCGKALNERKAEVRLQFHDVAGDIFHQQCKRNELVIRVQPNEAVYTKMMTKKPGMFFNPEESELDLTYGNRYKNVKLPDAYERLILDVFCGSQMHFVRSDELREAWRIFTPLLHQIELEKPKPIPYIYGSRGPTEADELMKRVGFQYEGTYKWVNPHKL
Heat shock cognate 71 kDa protein, sequence (P11142 whole entry): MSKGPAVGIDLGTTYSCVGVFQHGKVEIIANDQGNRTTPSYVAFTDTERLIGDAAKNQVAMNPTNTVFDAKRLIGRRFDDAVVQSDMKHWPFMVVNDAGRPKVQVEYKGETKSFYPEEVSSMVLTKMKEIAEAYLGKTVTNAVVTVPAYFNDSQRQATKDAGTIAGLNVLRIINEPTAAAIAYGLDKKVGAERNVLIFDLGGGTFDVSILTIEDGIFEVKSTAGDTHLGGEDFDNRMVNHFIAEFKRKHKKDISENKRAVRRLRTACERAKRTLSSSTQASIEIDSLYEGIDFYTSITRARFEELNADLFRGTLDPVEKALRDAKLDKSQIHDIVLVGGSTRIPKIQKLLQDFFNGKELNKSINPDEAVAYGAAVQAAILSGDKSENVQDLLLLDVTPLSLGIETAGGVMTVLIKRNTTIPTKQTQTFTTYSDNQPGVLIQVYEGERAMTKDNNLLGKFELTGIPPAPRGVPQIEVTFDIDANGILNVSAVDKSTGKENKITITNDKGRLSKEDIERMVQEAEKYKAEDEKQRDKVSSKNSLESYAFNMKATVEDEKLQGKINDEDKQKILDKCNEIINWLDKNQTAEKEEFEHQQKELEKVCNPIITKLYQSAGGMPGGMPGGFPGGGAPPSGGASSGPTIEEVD

N#Cc1c(N2CCCCC2)nc(N)c2c(N)nc(SCC(=O)O)cc12
IC50 [1]: 10.6 µM (active)

CC1(C)Cc2ccccc2C2=NNC(=O)C2=N1
CC50 [2]: 31.2 µM (active)
AC50 [3]: 3.62 µM (active)

CCc1ccc(S(=O)(=O)Nc2cc(SCC(=O)O)c(O)c3ccccc23)cc1
IC50 [4]: 50 µM (inactive)

O=[N+]([O-])c1ccc(Sc2cccc[n+]2[O-])c2nonc12
IC50 [5]: 72.6 µM (active)
AC50 [6]: 5.53 µM (active)
IC50 [7]: 0.448 µM (active)

CCCC(=O)NC(c1ccc(C(C)C)cc1)c1ccc2cccnc2c1O (configuration not stated)
EC50 [8]: 2.91 µM (active)
AC50 [9]: 0.47 µM (active)
AC50 [10]: 5.04 µM (active)
IC50 [11]: > 80 µM (inactive)
EC50 [12]: 2.35 µM (active)
IC50 [13]: > 119 µM (inactive)

Oc1c(Cl)cc(Cl)c(Cl)c1Cc1c(O)c(Cl)cc(Cl)c1Cl [HEXACHLOROPHENE]
IC50 [14]: 0.108 µM (active)
IC50 [15]: 27.4 µM (active)
IC50 [16]: 0.003 µM (active)
IC50 [17]: 0.032 µM (active)
IC50 [18]: 14.8 µM (active)
IC50 [19]: 0.97 µM (active)
IC50 [20]: 19.5 µM (active)
IC50 [21]: > 10 µM (inactive)
EC50 [22]: > 11.8 µM (not active)
